According to patent publication US8133884B2, “Compounds for the treatment of hepatitis C” (priority 2008, dated 2012):

How the values were obtained:
[1] = biological target: T1, HCV NS5B (Hepatitis C virus genotype 1b, UniProt Q9WMX2); assay: Modified HCV NS5B RdRp enzyme assay (preincubation protocol); assay type: biochemical
T1 construct: The protein was expressed with an 18 amino acid C-terminal truncation to enhance the solubility; made in house; host or cells: E. coli BL21(DE3)
Procedure, shortened: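 C-terminally truncated (Δ18) genotype 1b NS5B from E. coli, 14 nM, added to compound first, then polyA template (0.2 nM), 3H-UTP (0.29 μM) and oligo-dT12 primer precaptured on streptavidin SPA beads (20 nM). Run 4 h at 30° C, pH 7.5, 2% DMSO; IC50 fitted from seven concentrations.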

[2] = tested on: HCV replicon; assay: HCV replicon assay (FRET or luciferase reporter); assay type: cell-based; conditions: one of the methods described
Procedure, shortened: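 HCV replicon Huh-7 cells were exposed to titrated compound at 37 °C, with Alamar blue as a cytotoxicity read. Replication was measured by NS3 cleavage of an EDANS/DABCYL FRET peptide (20 μM, 340/490 nm kinetic read) or by Renilla luciferase, with background from high-dose protease inhibitor wells. EC50 was taken as 50% signal reduction; a 384-well format used 3.0×10^3 cells/well, 0.5% DMSO and 3 days.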

[3] = Hepatitis C virus, class symbol

T1 sequence (Q9WMX2 2420-2992): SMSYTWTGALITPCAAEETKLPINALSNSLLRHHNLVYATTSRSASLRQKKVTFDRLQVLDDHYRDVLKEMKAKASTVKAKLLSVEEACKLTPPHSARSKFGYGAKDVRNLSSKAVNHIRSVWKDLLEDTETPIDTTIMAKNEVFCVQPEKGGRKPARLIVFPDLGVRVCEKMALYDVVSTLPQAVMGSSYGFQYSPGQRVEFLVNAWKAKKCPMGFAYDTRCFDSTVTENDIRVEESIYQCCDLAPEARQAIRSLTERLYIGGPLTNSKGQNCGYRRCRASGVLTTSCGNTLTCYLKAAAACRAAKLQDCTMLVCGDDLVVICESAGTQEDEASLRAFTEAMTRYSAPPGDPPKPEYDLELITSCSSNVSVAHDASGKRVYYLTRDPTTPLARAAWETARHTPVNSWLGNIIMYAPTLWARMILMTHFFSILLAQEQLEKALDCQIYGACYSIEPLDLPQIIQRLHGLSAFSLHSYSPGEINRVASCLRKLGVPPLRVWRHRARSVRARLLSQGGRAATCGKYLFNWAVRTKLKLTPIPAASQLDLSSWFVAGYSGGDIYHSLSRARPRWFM

Row | Structure (SMILES) | IC50 ([1]; class symbol) [nM] | EC50 [2, 3] [nM] | IC50 ([1]; exact value) [nM] | EC50 ([2]; Hepatitis C virus, exact value) [nM] | EC50 ([2]; class symbol) [nM]
1 | COc1ccc2c(c1)C=C(c1c(C(=O)N3C[C@@H]4C[C@H]3CN4CC3CC3)cnn1C1CCC1)Cn1c-2c(C2CCCCC2)c2ccc(C(=O)NS(=O)(=O)C(C)C)cc21 | 1.7 to 500 | 1.7 to 500 |  |  | 
2 | COc1ccc2c(c1)C=C(c1c(C(=O)N3CC4CCC(C3)O4)cnn1C1CCC1)Cn1c-2c(C2CCCCC2)c2ccc(C(=O)NS(=O)(=O)C(C)C)cc21 | 1.7 to 500 | 1.7 to 500 | 3.9 | 10 | 
3 | COc1ccc2c(c1)C=C(c1c(C(=O)N3CCOCC3)cnn1C1CCC1)Cn1c-2c(C2CCCCC2)c2ccc(C(=O)NS(=O)(=O)C(C)C)cc21 | 1.7 to 500 | 1.7 to 500 |  |  | 
4 | COc1ccc2c(c1)C=C(c1ncn(C3CCC3)c1C(=O)N1C[C@@H](C)O[C@@H](C)C1)Cn1c-2c(C2CCCCC2)c2ccc(C(=O)NS(=O)(=O)C(C)C)cc21 | 1.7 to 500 | 1.7 to 500 |  |  | 
5 | COc1ccc2c(c1)C=C(c1c(C(=O)N3C[C@@H](C)N(C)[C@@H](C)C3)cnn1C1CCC1)Cn1c-2c(C2CCCCC2)c2ccc(C(=O)NS(=O)(=O)CC(C)C)cc21 | 1.7 to 500 | 1.7 to 500 |  |  | 
6 | CCN1C[C@@H]2C[C@H]1CN2C(=O)c1cnn(C2CCOCC2)c1C1=Cc2cc(OC)ccc2-c2c(C3CCCCC3)c3ccc(C(=O)NS(=O)(=O)CC(C)C)cc3n2C1 | 1.7 to 500 | 1.7 to 500 |  |  | 
7 | COc1ccc2c(c1)C=C(c1c(C(=O)N3C[C@@H]4C[C@H]3CN4C)cnn1C1CCC1)Cn1c-2c(C2CCCCC2)c2ccc(C(=O)NS(=O)(=O)C(C)C)cc21 | 1.7 to 500 | 1.7 to 500 |  |  | 
8 | COc1ccc2c(c1)C=C(c1c(C(=O)N3CCN4CCC[C@H]4C3)cnn1C1CCC1)Cn1c-2c(C2CCCCC2)c2ccc(C(=O)NS(=O)(=O)C(C)C)cc21 | 1.7 to 500 | 1.7 to 500 |  |  | 
9 | COc1ccc2c(c1)C=C(c1c(C(=O)N3C[C@@H](C)O[C@@H](C)C3)cnn1C1CCC1)Cn1c-2c(C2CCCCC2)c2ccc(C(=O)NS(=O)(=O)N(C)C)cc21 [drawing 260] | 1.7 to 500 |  |  |  | 1.7 to 500
10 | COc1ccc2c(c1)C=C(c1c(C(=O)N3C4CCCC3COC4)cnn1C1CCC1)Cn1c-2c(C2CCCCC2)c2ccc(C(=O)NS(=O)(=O)C(C)C)cc21 | 1.7 to 500 | 1.7 to 500 |  |  | 
11 | COc1ccc2c(c1)C=C(c1c(C(=O)N3C[C@@H](C)O[C@@H](C)C3)cnn1C1CCC1)Cn1c-2c(C2CCCCC2)c2ccc(C(=O)NS(=O)(=O)CC(C)C)cc21 | 1.7 to 500 | 1.7 to 500 |  |  | 
12 | COc1ccc2c(c1)C=C(c1c(C(=O)N3C[C@@H](C)O[C@@H](C)C3)cnn1C1CCOCC1)Cn1c-2c(C2CCCCC2)c2ccc(C(=O)NS(=O)(=O)C(C)C)cc21 | 1.7 to 500 | 1.7 to 500 | 2.6 | 8.9 | 
13 | COc1ccc2c(c1)C=C(c1c(C(=O)N3C[C@@H]4C[C@H]3CO4)cnn1C1CCC1)Cn1c-2c(C2CCCCC2)c2ccc(C(=O)NS(=O)(=O)C(C)C)cc21 | 1.7 to 500 | 1.7 to 500 | 5.4 | 30 | 
14 | COc1ccc2c(c1)C=C(c1c(C(=O)N3C4COCC3COC4)cnn1C1CCN(C)CC1)Cn1c-2c(C2CCCCC2)c2ccc(C(=O)NS(=O)(=O)C(C)C)cc21 | 1.7 to 500 | 1.7 to 500 | 7.5 | 130 | 
15 | COc1ccc2c(c1)C=C(c1c(C(=O)N3C4CCC3CN(C)C4)cnn1C1CCN(C)CC1)Cn1c-2c(C2CCCCC2)c2ccc(C(=O)NS(=O)(=O)C(C)C)cc21 | 1.7 to 500 | 1.7 to 500 |  |  | 
16 | COc1ccc2c(c1)C=C(c1c(C(=O)N3CCOCC3)cnn1C1CCN(C)CC1)Cn1c-2c(C2CCCCC2)c2ccc(C(=O)NS(=O)(=O)C(C)C)cc21 | 1.7 to 500 | 1.7 to 500 |  |  | 
17 | COc1ccc2c(c1)C=C(c1c(C(=O)N3C4COCC3COC4)cnn1-c1ccncc1C)Cn1c-2c(C2CCCCC2)c2ccc(C(=O)NS(=O)(=O)C(C)C)cc21 | 1.7 to 500 | 1.7 to 500 |  |  | 
18 | COc1ccc2c(c1)C=C(c1c(C(=O)N3CCOCC3)c(C)nn1C1CCC1)Cn1c-2c(C2CCCCC2)c2ccc(C(=O)NS(=O)(=O)C(C)C)cc21 | 1.7 to 500 | 1.7 to 500 |  |  | 
19 | COc1ccc2c(c1)C=C(c1c(C(=O)N3C[C@@H](C)O[C@@H](C)C3)cnn1-c1cccnc1)Cn1c-2c(C2CCCCC2)c2ccc(C(=O)NS(=O)(=O)C(C)C)cc21 | 1.7 to 500 | 1.7 to 500 |  |  | 
20 | COc1ccc2c(c1)C=C(c1c(C(=O)N3C4CCC3CC(C)(O)C4)cnn1-c1ccncc1C)Cn1c-2c(C2CCCCC2)c2ccc(C(=O)NS(=O)(=O)C(C)C)cc21 (stereo not drawn) | 1.7 to 500 | 1.7 to 500 |  |  | 
21 | COc1ccc2c(c1)C=C(c1c(C(=O)N3C[C@@H](C)O[C@@H](C)C3)cnn1-c1ccncc1)Cn1c-2c(C2CCCCC2)c2ccc(C(=O)NS(=O)(=O)C(C)C)cc21 | 1.7 to 500 | 1.7 to 500 |  |  | 
22 | COc1ccc2c(c1)C=C(c1c(C(=O)N3C4CCC3CN(C)C4)c(C)nn1C1CCC1)Cn1c-2c(C2CCCCC2)c2ccc(C(=O)NS(=O)(=O)C(C)C)cc21 | 1.7 to 500 | 1.7 to 500 |  |  | 

Row | Structure (SMILES) | IC50 ([1]; class symbol) [nM] | EC50 [2, 3] [nM] | IC50 ([1]; exact value) [nM] | EC50 ([2]; Hepatitis C virus, exact value) [nM] | EC50 ([2]; class symbol) [nM]
23 | COc1ccc2c(c1)C=C(c1c(C(=O)N3C[C@@H]4C[C@H]3CN4)c(C)nn1C1CCC1)Cn1c-2c(C2CCCCC2)c2ccc(C(=O)NS(=O)(=O)C(C)C)cc21 | < 1.7 | 1.7 to 500 |  |  | 
24 | COc1ccc2c(c1)C=C(c1c(C(=O)N3C[C@@H](C)O[C@@H](C)C3)noc1C1CC1)Cn1c-2c(C2CCCCC2)c2ccc(C(=O)NS(=O)(=O)N(C)C)cc21 | 1.7 to 500 | 1.7 to 500 |  |  | 
25 | COc1ccc2c(c1)C=C(c1c(C(=O)N3C[C@@H](C)N(C)[C@@H](C)C3)c(C)nn1C1CCC1)Cn1c-2c(C2CCCCC2)c2ccc(C(=O)NS(=O)(=O)C(C)C)cc21 | 1.7 to 500 | 1.7 to 500 |  |  | 
26 | COc1ccc2c(c1)C=C(c1c(C(=O)N3CC4CCC(C3)N4C)cnn1C1CCOCC1)Cn1c-2c(C2CCCCC2)c2ccc(C(=O)NS(=O)(=O)C(C)C)cc21 | 1.7 to 500 | 1.7 to 500 |  |  | 
27 | COc1ccc2c(c1)C=C(c1c(C(=O)N3CCOCC3)cnn1C1CC1)Cn1c-2c(C2CCCCC2)c2ccc(C(=O)NS(=O)(=O)C(C)C)cc21 | 1.7 to 500 | 1.7 to 500 |  |  | 
28 | COC[C@@H]1CN(C(=O)c2c(C)nn(C3CCC3)c2C2=Cc3cc(OC)ccc3-c3c(C4CCCCC4)c4ccc(C(=O)NS(=O)(=O)C(C)C)cc4n3C2)CCO1 | 1.7 to 500 | 1.7 to 500 |  |  | 
29 | COc1ccc2c(c1)C=C(c1c(C(=O)N3C4CCC3CC(C)(O)C4)cnn1C1CCN(C)CC1)Cn1c-2c(C2CCCCC2)c2ccc(C(=O)NS(=O)(=O)C(C)C)cc21 (stereo not drawn) | 1.7 to 500 | 1.7 to 500 | 96 | 10 | 
30 | COc1ccc2c(c1)C=C(c1c(C(=O)N3CCN(C)CC3)c(C)nn1C1CCC1)Cn1c-2c(C2CCCCC2)c2ccc(C(=O)NS(=O)(=O)C(C)C)cc21 | 1.7 to 500 | 1.7 to 500 |  |  | 
31 | COc1ccc2c(c1)C=C(c1c(C(=O)N3C[C@@H](C)N(C)[C@@H](C)C3)cnn1C1CCC1)Cn1c-2c(C2CCCCC2)c2ccc(C(=O)NS(=O)(=O)C(C)C)cc21 | 1.7 to 500 | 1.7 to 500 |  |  | 
32 | COc1ccc2c(c1)C=C(c1c(C(=O)N3C[C@@H](C)O[C@@H](C)C3)cnn1C1CCN(C)CC1)Cn1c-2c(C2CCCCC2)c2ccc(C(=O)NS(=O)(=O)C(C)C)cc21 | 1.7 to 500 | 1.7 to 500 | 5.4 | 5.5 | 
33 | COc1ccc2c(c1)C=C(c1c(C(=O)N3C[C@@H](C)N(C)[C@@H](C)C3)cnn1C1CC1)Cn1c-2c(C2CCCCC2)c2ccc(C(=O)NS(=O)(=O)C(C)C)cc21 | 1.7 to 500 | 1.7 to 500 |  |  | 
34 | COc1ccc2c(c1)C=C(c1c(C(=O)N3C[C@@H](C)O[C@@H](C)C3)cnn1C1CCC1)Cn1c-2c(C2CCCCC2)c2ccc(C(=O)NS(=O)(=O)N(C)C)cc21 [drawing 259] | 1.7 to 500 | 1.7 to 500 |  |  | 
35 | COc1ccc2c(c1)C=C(c1c(C(=O)N3CC4CCC(C3)N4C)cnn1C1CCOCC1)Cn1c-2c(C2CCCCC2)c2ccc(C(=O)NS(=O)(=O)CC(C)C)cc21 | 1.7 to 500 | 1.7 to 500 |  |  | 
36 | COc1ccc2c(c1)C=C(c1c(C(=O)N3CCOCC3)cnn1C1CCC1)Cn1c-2c(C2CCCCC2)c2ccc(C(=O)NS(=O)(=O)CC(C)C)cc21 | 1.7 to 500 | 1.7 to 500 |  |  | 
37 | CCOC(=O)c1cnn(C2CCN(C)CC2)c1C1=Cc2cc(OC)ccc2-c2c(C3CCCCC3)c3ccc(C(=O)NS(=O)(=O)C(C)C)cc3n2C1 | 1.7 to 500 | 1.7 to 500 |  |  | 
38 | COc1ccc2c(c1)C=C(c1c(C(=O)N3C[C@@H](C)O[C@@H](C)C3)cnn1C1CCOCC1)Cn1c-2c(C2CCCCC2)c2ccc(C(=O)NS(=O)(=O)CC(C)C)cc21 | 1.7 to 500 | 1.7 to 500 |  |  | 
39 | COc1ccc2c(c1)C=C(c1ncn(C3CCC3)c1C(=O)N1CCOCC1)Cn1c-2c(C2CCCCC2)c2ccc(C(=O)NS(=O)(=O)C(C)C)cc21 | 1.7 to 500 | 1.7 to 500 | 1.8 | 9 | 
40 | COc1ccc2c(c1)C=C(c1c(C(=O)N3C[C@]4(C)CN(C)C[C@](C)(C3)C4)cnn1C1CCC1)Cn1c-2c(C2CCCCC2)c2ccc(C(=O)NS(=O)(=O)C(C)C)cc21 | 1.7 to 500 | 1.7 to 500 |  |  | 
41 | CCN1C[C@@H]2C[C@H]1CN2C(=O)c1cnn(C2CCC2)c1C1=Cc2cc(OC)ccc2-c2c(C3CCCCC3)c3ccc(C(=O)NS(=O)(=O)N(C)C)cc3n2C1 | 1.7 to 500 | 1.7 to 500 |  |  | 
42 | COc1ccc2c(c1)C=C(c1c(C(=O)N3C[C@@H](C)O[C@@H](C)C3)ncn1C1CC1)Cn1c-2c(C2CCCCC2)c2ccc(C(=O)NS(=O)(=O)C(C)C)cc21 | 1.7 to 500 | 1.7 to 500 |  |  | 
43 | COCC1CN(C(=O)c2cnn(-c3ccncc3C)c2C2=Cc3cc(OC)ccc3-c3c(C4CCCCC4)c4ccc(C(=O)NS(=O)(=O)C(C)C)cc4n3C2)CCO1 (stereo not drawn) | 1.7 to 500 | 1.7 to 500 | 5.5 | 170 | 
